# Reference: ChEMBL document CHEMBL1140063, “Synthesis and biological evaluation of 2-amino-3-(4-chlorobenzoyl)-4-[N-(substituted) piperazin-1-yl]thiophenes as potent allosteric enhancers of the A1 adenosine receptor” (J Med Chem, 2008)
# pKd, pKi: −log10 of the molar value.
# Experiments:
# [1] = target: T1, Adenosine receptor A1 (Homo sapiens) (UniProt P30542); assay: Displacement of [3H]DPCPX from human adenosine A1 receptor expressed in CHO cells assessed for per milligram of protein; format: cell-based
# T1 sequence (whole entry): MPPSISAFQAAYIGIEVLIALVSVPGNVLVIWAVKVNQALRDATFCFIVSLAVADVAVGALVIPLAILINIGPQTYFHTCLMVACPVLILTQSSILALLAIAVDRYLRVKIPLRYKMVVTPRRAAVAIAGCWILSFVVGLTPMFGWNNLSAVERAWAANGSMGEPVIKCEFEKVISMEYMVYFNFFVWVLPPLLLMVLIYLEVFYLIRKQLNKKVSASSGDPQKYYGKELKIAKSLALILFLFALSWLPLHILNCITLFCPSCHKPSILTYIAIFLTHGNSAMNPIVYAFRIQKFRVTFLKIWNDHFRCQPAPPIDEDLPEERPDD
# Adenosine receptor A1 [2] = target: T2, Adenosine receptor A1 (Homo sapiens, UniProt P30542); assay: Displacement of [3H]DPCPX from human adenosine A1 receptor expressed in CHO cells; format: cell-based
# T2 sequence (P30542 whole entry): T1 sequence (whole entry)
# [3] = target: T1, Adenosine receptor A1 (Homo sapiens); assay: Displacement of [3H]DPCPX from human adenosine A1 receptor expressed in CHO cells relative to untreated control; format: cell-based
# Adenosine receptor A1 [4] = target: T2, Adenosine receptor A1; assay: Displacement of [3H]CCPA from human adenosine A1 receptor expressed in CHO cells; format: cell-based
# [5] = target: T1, Adenosine receptor A1 (Homo sapiens); assay: Displacement of [3H]CCPA from human adenosine A1 receptor expressed in CHO cells relative to untreated control; format: cell-based
# [6] = target: T1, Adenosine receptor A1 (Homo sapiens); assay: Displacement of [3H]DPCPX from human adenosine A1 receptor expressed in CHO cells at 10 uM; format: cell-based
# [7] = target: T1, Adenosine receptor A1 (Homo sapiens); assay: Activity at human recombinant adenosine A1 receptor expressed in CHO cells assessed as cAMP level at 0.01 uM; format: functional, cell-based
# [8] = target: T1, Adenosine receptor A1 (Homo sapiens); assay: Activity at human recombinant adenosine A1 receptor expressed in CHO cells assessed as of cAMP level at 0.1 uM; format: functional, cell-based
# [9] = target: T1, Adenosine receptor A1 (Homo sapiens); assay: Activity at human recombinant adenosine A1 receptor expressed in CHO cells assessed as cAMP level at 10 uM; format: functional, cell-based
# [10] = target: T1, Adenosine receptor A1 (Homo sapiens); assay: Displacement of [3H]CCPA from human adenosine A1 receptor expressed in CHO cells assessed for per milligram of protein; format: cell-based
# [11] = target: Adenosine receptor A2a (Homo sapiens) (UniProt P29274); assay: Displacement of [3H]ZM241385 from human adenosine A2A receptor expressed in CHO cells at 10 uM; format: cell-based
# Adenosine receptor A2a (Homo sapiens), sequence (P29274 whole entry): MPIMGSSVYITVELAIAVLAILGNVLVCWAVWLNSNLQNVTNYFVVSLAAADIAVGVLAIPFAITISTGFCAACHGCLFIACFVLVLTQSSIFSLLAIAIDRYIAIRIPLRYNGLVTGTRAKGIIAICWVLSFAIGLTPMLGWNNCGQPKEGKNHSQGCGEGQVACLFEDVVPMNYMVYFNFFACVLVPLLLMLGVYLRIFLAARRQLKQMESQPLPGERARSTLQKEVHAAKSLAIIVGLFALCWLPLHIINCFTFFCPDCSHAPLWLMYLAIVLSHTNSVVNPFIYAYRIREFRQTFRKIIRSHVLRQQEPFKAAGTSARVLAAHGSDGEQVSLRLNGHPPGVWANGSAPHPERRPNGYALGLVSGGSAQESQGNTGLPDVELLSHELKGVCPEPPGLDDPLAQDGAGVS
# [12] = target: T1, Adenosine receptor A1 (Homo sapiens); assay: Activity at human recombinant adenosine A1 receptor expressed in CHO cells assessed as cAMP level at 1 uM; format: functional, cell-based
# [13] = target: T3, Adenosine receptor A3 (Homo sapiens) (UniProt P0DMS8); assay: Displacement of [3H]MRE3008F20 from human adenosine A3 receptor expressed in CHO cells at 10 uM; format: cell-based
# T3 sequence (whole entry): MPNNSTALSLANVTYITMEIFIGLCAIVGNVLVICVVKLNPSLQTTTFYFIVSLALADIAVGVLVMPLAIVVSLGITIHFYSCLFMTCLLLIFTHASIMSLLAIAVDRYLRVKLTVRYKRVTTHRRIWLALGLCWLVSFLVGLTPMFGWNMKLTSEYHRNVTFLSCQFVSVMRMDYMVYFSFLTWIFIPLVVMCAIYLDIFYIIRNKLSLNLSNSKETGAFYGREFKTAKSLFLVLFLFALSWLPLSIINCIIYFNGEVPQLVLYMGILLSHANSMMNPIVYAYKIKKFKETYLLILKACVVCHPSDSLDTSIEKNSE
# [14] = target: T1, Adenosine receptor A1 (Homo sapiens); assay: Displacement of [3H]DPCPX from human adenosine A1 receptor expressed in CHO cells at 100 uM; format: cell-based
# Adenosine receptor A1 [15] = target: T4, Adenosine receptor A1 (Rattus norvegicus, UniProt P25099); assay: Displacement of [3H]DPCPX from adenosine A1 receptor in rat membranes; format: cell membranes
# T4 sequence (P25099 whole entry): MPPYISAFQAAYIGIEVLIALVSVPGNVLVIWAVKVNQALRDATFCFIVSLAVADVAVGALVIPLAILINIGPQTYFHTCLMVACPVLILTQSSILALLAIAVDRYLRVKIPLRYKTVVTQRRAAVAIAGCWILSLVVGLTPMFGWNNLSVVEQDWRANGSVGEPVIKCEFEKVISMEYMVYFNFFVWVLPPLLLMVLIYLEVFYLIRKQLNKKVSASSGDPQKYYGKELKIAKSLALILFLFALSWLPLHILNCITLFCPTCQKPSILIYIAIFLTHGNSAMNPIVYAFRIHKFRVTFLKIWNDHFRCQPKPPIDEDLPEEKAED
Bmax [1] [fmol],pKd (Adenosine receptor A1 [2]),Activity [3],pKd (Adenosine receptor A1 [4]),Activity [5],Activity [6] [%],Activity [7] [%],Activity [8] [%],Activity [9] [%],Bmax [10] [fmol],Activity [11] [%],Activity [12] [%],Activity [13] [%],Activity [14] [%],pKi (Adenosine receptor A1 [15]),Compound
3060,8.77,0.9,9.00,3.9,0,10,3,66,2020,0,22,0,,,Cc1ccc(N2CCN(Cc3csc(N)c3C(=O)c3ccc(Cl)cc3)CC2)cc1
3190,8.72,0.9,8.96,1.4,0,15,13,34,725,0,23,0,,,Nc1scc(CN2CCN(c3ccc4c(c3)OCO4)CC2)c1C(=O)c1ccc(Cl)cc1
3320,8.77,1,8.96,2.8,0,9,3,69,1450,0,25,0,,,Nc1scc(CN2CCN(c3ncccn3)CC2)c1C(=O)c1ccc(Cl)cc1
3200,8.72,0.9,8.96,1.2,0,5,3,52,622,0,13,5,,,Nc1scc(CN2CCN(C3CCCCC3)CC2)c1C(=O)c1ccc(Cl)cc1
3090,8.77,0.9,8.92,3.5,0,9,5,69,1810,4,46,0,,,Nc1scc(CN2CCN(c3ccccn3)CC2)c1C(=O)c1ccc(Cl)cc1
3650,8.74,1.1,8.96,7,0,10,48,78,3630,3,65,6,,,Nc1scc(CN2CCN(c3ccc(Cl)cc3)CC2)c1C(=O)c1ccc(Cl)cc1
3560,8.74,1.1,9.00,6.7,0,3,19,77,3470,0,63,17,,,Nc1scc(CN2CCN(c3ccc(F)cc3)CC2)c1C(=O)c1ccc(Cl)cc1
3260,8.74,1,8.96,4.8,0,12,8,72,2490,0,54,20,,,N#Cc1ccc(N2CCN(Cc3csc(N)c3C(=O)c3ccc(Cl)cc3)CC2)cc1
3420,8.77,1,8.96,6.1,0,3,4,78,3160,0,30,0,,,Nc1scc(CN2CCN(Cc3ccccc3)CC2)c1C(=O)c1ccc(Cl)cc1
3340,,,,1.3,0,8,3,57,673,0,31,21,42,4.96,Cc1sc(N)c(C(=O)c2cccc(C(F)(F)F)c2)c1C
3520,8.72,1,9.00,6.5,0,4,26,78,3370,0,62,0,,,Nc1scc(CN2CCN(c3ccccc3)CC2)c1C(=O)c1ccc(Cl)cc1
3680,8.72,1.1,9.00,7.7,0,10,53,87,3990,0,84,15,,,Nc1scc(CN2CCN(c3ccc(C(F)(F)F)cc3)CC2)c1C(=O)c1ccc(Cl)cc1

Compound,Bmax [1] [fmol],pKd (Adenosine receptor A1 [2]),Activity [3],pKd (Adenosine receptor A1 [4]),Activity [5],Activity [6] [%],Activity [7] [%],Activity [8] [%],Activity [9] [%],Bmax [10] [fmol],Activity [11] [%],Activity [12] [%],Activity [13] [%],Activity [14] [%],pKi (Adenosine receptor A1 [15])
CN1CCN(Cc2csc(N)c2C(=O)c2ccc(Cl)cc2)CC1,2990,8.77,0.9,8.92,1.1,3,3,3,16,570,0,1,0,,
